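All cell lines were grown in 96-well plates and treated with compound for 48 hours. TGI marks complete inhibition of growth.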
Experiments:
Assay in all cases: NCI anticancer screen, dose series, 48 h
[1] = system: HCC-2998 colon
[2] = system: NCI-H460 lung
[3] = system: SK-MEL-2 melanoma
[4] = system: CAKI-1 renal
[5] = system: OVCAR-8 ovarian
[6] = system: HOP-92 NSCLC
[7] = system: SNB-75 CNS
[8] = system: HL-60(TB) leukemia
[9] = system: MALME-3M melanoma
[10] = system: SF-539 CNS
[11] = system: DLD-1 colon
[12] = system: RPMI-8226 leukemia
[13] = system: K-562 leukemia
[14] = system: SK-OV-3 ovarian
[15] = system: LOX IMVI melanoma
[16] = system: PC-3 prostate
[17] = system: MDA-MB-435
[18] = system: NCI/ADR-RES ovarian
[19] = system: HS 578T breast
[20] = system: T-47D breast

| SMILES | TGI [1] [µM] | TGI [2] [µM] | TGI [3] [µM] | TGI [4] [µM] | TGI [5] [µM] | TGI [6] [µM] | TGI [7] [µM] | TGI [8] [µM] | TGI [9] [µM] | TGI [10] [µM] | TGI [11] [µM] | TGI [12] [µM] | TGI [13] [µM] | TGI [14] [µM] | TGI [15] [µM] | TGI [16] [µM] | TGI [17] [µM] | TGI [18] [µM] | TGI [19] [µM] | TGI [20] [µM] |
| --- | --- | --- | --- | --- | --- | --- | --- | --- | --- | --- | --- | --- | --- | --- | --- | --- | --- | --- | --- | --- |
| CSc1nc(Cl)c(Br)c(Sc2nc(N)nc3nc[nH]c23)n1 | 15.2 | 20.1 | 16.9 | 10.2 | 41.9 | 19.2 | 9.74 | 13.3 | 26.4 | 11.2 | 24.4 | 16.4 | 13.1 |  |  |  |  |  |  |  |
| Clc1ccc2c(c1)C1C(CO2)C(c2ccccc2)=NN1c1ccccc1 (centres undefined) | > 100 | > 100 | 75.4 |  | > 100 | 58.9 | 82.9 | 53.1 | > 100 |  | > 100 | 47.6 | 93.8 | > 100 |  |  |  |  |  |  |
| Nc1ccc2nc(Nc3ccc(F)cc3)cnc2c1 | > 100 | > 100 | > 100 | > 100 | > 100 |  | > 100 | > 100 | > 100 | > 100 | > 100 | > 100 | > 100 |  | > 100 |  |  |  |  |  |
| CC(=O)OC1COC(Nc2ccc(C(C)=O)cc2)C(OC(C)=O)C1OC(C)=O (centres undefined) | > 100 | > 100 | > 100 | > 100 | > 100 | > 100 | > 100 |  | > 100 | > 100 | > 100 | > 100 | > 100 | > 100 | > 100 |  |  |  |  |  |
| CN(C(=O)C12C3C4C1C1C4(C(=O)C45C6C7C4C4C5C6C74C)C3C12C)C(C)(C)C (centres undefined) | > 100 | > 100 | > 100 | > 100 | > 100 | > 100 | > 100 | 43.2 | > 100 | > 100 | > 100 |  | > 100 | > 100 | > 100 |  |  |  |  |  |
| COC(=O)N1CCc2c(nc(N(C)CCO)[nH]c2=O)C1 | > 100 | > 100 | > 100 | > 100 | > 100 | > 100 | > 100 | > 100 | > 100 | > 100 | > 100 | > 100 | > 100 | > 100 | > 100 |  |  |  |  |  |
| CC(=O)OC[C@]1(O)CC[C@@]23CC1C[C@@H]2CCC1C(C)(C)CCC[C@@]13C (some centres undefined) | 33 | 30.2 |  | 32.4 | 32 | 27.8 | 30 | 20.4 | 29.5 | 30.4 | 28.8 | 28.1 | 20.3 | 28.9 | 23.3 |  |  |  |  |  |
| O=C1c2ccccc2C(=O)[C@@]23O[C@@]12C1(Oc2cccc4cccc(c24)O1)[C@@H]1O[C@@H]1[C@@H]3O | 22 | 23.6 | 42.1 | 24.5 | 12.8 | 31.9 | 24 | 4.89 | 30.3 | 9.56 |  | > 23.1 | > 29.8 | 28.6 | 16.5 | 34.3 | > 59.6 | 15.7 | 51.8 | 29.8 |
| COC(=O)C1(c2cc3ccccc3n2S(=O)(=O)c2ccccc2)CC2C=CC1NC2 (centres undefined) | 3.8 | > 29.6 | 3.63 | 4.27 | 4.42 | 4.12 | 17.9 | 4.71 | > 22.8 | 3.55 |  | 2.74 | 5.01 | 13.2 | 3.73 | 3.05 | 3.86 | 6.95 | > 25.9 | 13.5 |
| Oc1cc(-c2ccccc2)cn2c1nc1ccccc12 | > 100 | > 100 | > 100 | > 100 | > 54.3 | > 100 | > 100 | 9.4 | > 100 | > 96.6 |  | > 100 | > 100 | 6.09 | > 100 | > 100 | > 100 | 11.8 | 47.7 | > 100 |
| CC(C)(C)C(=O)C(C(=O)C(C)(C)C)C(=O)C(C)(C)C | > 100 | > 100 | > 100 | > 100 | > 100 | > 100 | > 100 | > 100 | > 100 | > 100 |  | > 100 | > 100 | > 100 | > 100 | > 100 | > 100 | > 100 | > 100 | > 100 |
| Cc1ccc(N=Nc2ccc(O)c(CN(C)C)c2)cc1C | 32.7 | 42.6 | 34.7 | > 100 | > 100 | > 100 | > 100 | 26.1 | 34.8 | 44.1 |  | 90.1 | 43.5 | > 100 | 76.2 | > 100 | 40.4 | 52.6 | 56.2 | 41.9 |
| C=CC(c1ccccc1)[C@@]1(OC(C)=O)C(=O)C(=O)OC1C1COC(C)(C)O1 (some centres undefined) | 32.8 | 32.3 | 33.4 | 11.7 | 27.9 | 15.9 | 36.6 | 5.86 | 34.3 | 29.4 |  | 56.4 | > 26 | 32.3 | 16.2 | 24.3 | 31.2 | 51.7 | 68.3 | 41.1 |
| Nc1nc(Cl)c2ncn(Cc3ccc(CCl)cc3)c2n1 | 8.95 | 20 | 29.1 | 9.87 | 32.8 | > 100 | 90.2 | > 100 | 27.3 | 9.89 |  | > 100 | > 100 | 31.1 | 43.9 | 25 | 42.5 | 26.7 | > 100 | 40.1 |
| CCN=C(NNc1ccc([N+](=O)[O-])cc1)P(=O)(OC(C)C)OC(C)C | > 100 | > 100 | > 100 | > 100 | > 100 | > 100 | > 100 | > 100 | > 100 | > 100 | > 100 | > 100 | > 100 |  | > 100 |  |  |  |  |  |
| CC(C)CC1C(=O)NCCC(NC(=O)C(N)Cc2ccc(O)cc2)C(=O)NC(Cc2ccccc2)C(=O)NC(Cc2ccccc2)NC1=O (centres undefined) | > 100 | > 100 | > 100 | > 100 | > 100 | > 100 | > 100 | > 100 | > 100 | > 100 |  | > 100 | > 100 | > 100 | > 100 | > 100 | > 100 | > 100 | > 100 | > 100 |
| COc1cccc(NC(=O)/C(CC(=O)CC(c2ccccc2)c2c(O)c3ccccc3oc2=O)=N\NC(C)(C)C)c1OC (centres undefined) | > 100 | > 100 | > 100 | > 100 | > 100 | > 100 | > 100 | > 100 | > 100 | > 100 | > 100 | > 100 | > 100 | > 100 | > 100 |  |  |  |  |  |
| O=C(CCc1ccccc1)ON1C(=S)NC(c2ccccc2)(c2ccccc2)C1=S | > 100 | > 100 | 47.8 | > 100 | > 100 | > 100 | > 100 | 61.2 | 71.5 | > 100 |  | 80.4 | > 100 | > 100 | 52.8 | 63.8 | > 100 | > 100 | > 100 | > 100 |
| COc1c(C)c2c(c(=O)c3c(C)cccc3n2C)c2c1c(=O)c1c(C)cccc1n2C | > 10 | > 10 | > 10 | > 10 | > 10 | > 10 | > 10 | > 10 | > 10 | > 10 |  | > 10 | > 10 | > 10 | > 10 | > 10 | > 10 | > 10 | > 10 | > 10 |
